Measured values taken from patent publication US9023336B2, “Deuterium-enriched aldehydes” (Protia, LLC, priority 2013, dated 2015).

Test: Measurement of aldehyde oxidations (air autoxidation of aldehyde to carboxylic acid)
Type: physicochemical
Conditions: for amount of aldehyde remaining / loss of aldehyde: after 24 hours; for amount of aldehyde remaining: aldehyde 1 mmol in triacetin 2.0 mL + water 0.10 mL, stirred at room temperature under air, HPLC (benzaldehyde) or GC (hexanal); for loss of aldehyde: triacetin/water, room temperature, air
Description: General Procedure for Measurement of Aldehyde Oxidations
To a 12 mL clear, colorless, glass vial, fitted with a stir bar, was added the aldehyde (1 mmol), triacetin (2.0 mL), and water (0.10 mL, purified by reverse osmosis). The top of the vial was covered with a tissue and the mixture was stirred vigorously at room temperature. In the benzaldehyde reactions, (both H and D), 4.0 μL aliquots were withdrawn at 0, 0.5, 18, 25, 96, and 120 hour time points. These were diluted with ethanol (1.0 mL), and analyzed by HPLC. […] These were diluted with ethanol (1.0 mL) and analyzed by GC.
Instruments and Conditions Used for Analysis:
High pressure liquid chromatography: Agilent XDB C18 50×4.6 mm 1.8 micron column
Solvent A—Water (0.1% TFA)
Solvent B—Acetonitrile (0.07% TFA)
Gradient—5 min 95% A to 95% B then 1 minute hold. 1.5 mL/min
UV Detection (integration) @ 210 and 254 nm
HP 6890GC Column=Agilent DB-5 15 m×0.25 mm capillary column.
35° C. start (2 min hold), ramping to 100° C. at 5° C. per minute
Flame Ion Detection (integration)

Row | SMILES | amount of aldehyde remaining | loss of aldehyde | reduction of autoxidation due to deuterium versus un-enriched aldehyde (after a period of approximately 24 hours)
1 | [2H]C(=O)c1ccccc1 [benzaldehyde-D] | approximately 90% | 10% | over 50%
2 | O=Cc1ccccc1 [benzaldehyde-H, benzaldehyde, reference compound] | approximately 30% | 70% | –
